Laboratory results as given in the supplement of paper PMC11061612.

Legend:
Assay in all cases: Bliss excess, mean over the matrix (fraction); higher = more synergy
[1] = tested on: 647-V (Bladder Carcinoma)
Method in brief: (§1)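 Cell lines grown in DMEM/F12 or RPMI with 10% FBS were plated in 1536-well plates and held 24 hours at 37°C, 5% CO2 before 72 hours of exposure to two-drug dose matrices, with DMSO typically at 0.2%. CellTiter-Glo 2.0 luminescence gave viability, which was converted to inhibition. Vehicle wells were set to 0 and blank wells to 1. Combination Emax is the second-highest inhibition in the matrix, and Bliss excess is the observed combination effect minus the expected EA + EB − EA·EB, where EA and EB are the single-agent effects.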

[2] = tested on: CAL-39 (Other Solid Carcinomas)
Method in brief: as §1

CS1 (Chondrosarcoma) = tested on: CS1 (Chondrosarcoma)
Method in brief: as §1

[3] = tested on: ETK-1 (Biliary Tract Carcinoma)
Method in brief: as §1

[4] = tested on: GDM-1 (Acute Myeloid Leukemia)
Method in brief: as §1

[5] = tested on: HCC1143 (Breast Carcinoma)
Method in brief: as §1

[6] = tested on: KG-1 (Acute Myeloid Leukemia)
Method in brief: as §1

[7] = tested on: MEG-01 (Chronic Myelogenous Leukemia)
Method in brief: as §1

MSTO-211H (Mesothelioma) = tested on: MSTO-211H (Mesothelioma)
Method in brief: as §1

[8] = tested on: NCI-H1688 (Small Cell Lung Carcinoma)
Method in brief: as §1

[9] = tested on: SK-LMS-1 (Other Solid Carcinomas)
Method in brief: as §1

[10] = tested on: SNU-61 (Colorectal Carcinoma)
Method in brief: as §1

| Structure (SMILES) | Bliss excess [1] | Bliss excess [2] | Bliss excess (CS1 (Chondrosarcoma)) | Bliss excess [3] | Bliss excess [4] | Bliss excess [5] | Bliss excess [6] | Bliss excess [7] | Bliss excess (MSTO-211H (Mesothelioma)) | Bliss excess [8] | Bliss excess [9] | Bliss excess [10] |
| --- | --- | --- | --- | --- | --- | --- | --- | --- | --- | --- | --- | --- |
| Cc1c2c(nn1C)CSCc1cc(n(C)n1)CSc1cc(c3ccccc3c1)OCCCc1c(C(=O)O)n(C)c3c-2c(Cl)ccc13 [AZD5991] + CC1(C)CCC(CN2CCN(c3ccc(C(=O)NS(=O)(=O)c4ccc(NCC5CCOCC5)c([N+](=O)[O-])c4)c(Oc4cnc5[nH]ccc5c4)c3)CC2)=C(c2ccc(Cl)cc2)C1 [Venetoclax] (first compound max 1 µM, 7x7, partner max 1 µM) | -0.0271 | -0.0298 | -0.0418 | -0.0526 | 0.174 | 0.0051 | 0.119 | 0.105 | -0.0455 | 0.105 | -0.0422 | -0.0143 |
| Cc1c2c(nn1C)CSCc1cc(n(C)n1)CSc1cc(c3ccccc3c1)OCCCc1c(C(=O)O)n(C)c3c-2c(Cl)ccc13 [AZD5991] + CCN(CCO)CCCOc1ccc2c(Nc3cc(CC(=O)Nc4cccc(F)c4)[nH]n3)ncnc2c1 [AZD2811] (first compound max 1 µM, 7x7, partner max 1 µM) | 0.0896 | -0.0192 | -0.044 | -0.0018 | 0.0444 | 0.0514 | 0.032 | 0.002 | 0.0477 | 0.0059 | -0.0538 | 0.0315 |
| Cc1c2c(nn1C)CSCc1cc(n(C)n1)CSc1cc(c3ccccc3c1)OCCCc1c(C(=O)O)n(C)c3c-2c(Cl)ccc13 [AZD5991] + CN(C)CCCOc1ccc(-c2ccc3ncc4c(c3c2)n(C2CCOCC2)c(=O)n4C)cn1 [AZD0156] (first compound max 1 µM, 7x7, partner max 1 µM) | 0.015 | -0.0786 | 0.0158 | -0.0503 | 0.0079 | -0.0287 | 0.0115 | -0.007 | -0.0129 | -0.0098 | -0.0645 | -0.0047 |
| Cc1c2c(nn1C)CSCc1cc(n(C)n1)CSc1cc(c3ccccc3c1)OCCCc1c(C(=O)O)n(C)c3c-2c(Cl)ccc13 [AZD5991] + C[C@@H]1COCCN1C2=NC(=NC(=C2)C3(CC3)[S@](=N)(=O)C)C4=C5C=CNC5=NC=C4 [AZD6738] (first compound max 1 µM, 7x7, partner max 10 µM) | 0.0802 | -0.0411 | 0.0029 | 0.0015 | 0.0863 | 0.0032 | 0.0155 | -0.0227 | 0.0032 | 0.0406 | -0.0471 | 0.0435 |
| Cc1c2c(nn1C)CSCc1cc(n(C)n1)CSc1cc(c3ccccc3c1)OCCCc1c(C(=O)O)n(C)c3c-2c(Cl)ccc13 [AZD5991] + C[C@@H](Nc1cc(F)cc(F)c1)c1cc(C(=O)N(C)C)cc2c(=O)cc(N3CCOCC3)oc12 [AZD8186] (first compound max 1 µM, 7x7, partner max 3 µM) | 0.0458 | 0.0117 | 0.0031 | -0.0221 | 0.0355 | 0.0441 | 0.0031 | 0.0019 | -0.0019 | 0.0171 | -0.0056 | -0.0277 |
| Cc1c2c(nn1C)CSCc1cc(n(C)n1)CSc1cc(c3ccccc3c1)OCCCc1c(C(=O)O)n(C)c3c-2c(Cl)ccc13 [AZD5991] + Cc1cc2ncnn2cc1Nc1ncc2c(n1)n(C1CCOCC1)c(=O)n2C [AZD7648] (first compound max 1 µM, 7x7, partner max 10 µM) | 0.0281 | -0.0466 | -0.0282 | -0.0466 | -0.0295 | 0.0124 | -0.0136 | -0.0157 | -0.025 | -0.0093 | -0.0392 | -0.0446 |
| Cc1c2c(nn1C)CSCc1cc(n(C)n1)CSc1cc(c3ccccc3c1)OCCCc1c(C(=O)O)n(C)c3c-2c(Cl)ccc13 [AZD5991] + Cn1cnc2c(F)c(Nc3ccc(Br)cc3Cl)c(C(=O)NOCCO)cc21 [Selumetinib] (first compound max 1 µM, 7x7, partner max 3 µM) | 0.0749 | 0.02 | -0.0136 | -0.005 | 0.0387 | 0.0552 | 0.0316 | 0.139 | -0.006 | 0.0484 | -0.0257 | -0.0079 |
| Cc1cc2ncnn2cc1Nc1ncc2c(n1)n(C1CCOCC1)c(=O)n2C [AZD7648] + C=CCn1c(=O)c2cnc(Nc3ccc(N4CCN(C)CC4)cc3)nc2n1-c1cccc(C(C)(C)O)n1 [AZD1775] (first compound max 10 µM, partner max 1 µM) | 0.0132 | -0.0211 | 0.0046 | -0.0144 | -0.0239 | -0.0183 | -0.0652 | -0.0209 | 0.067 | -0.0094 | -0.0661 | -0.049 |
| Cc1cc2ncnn2cc1Nc1ncc2c(n1)n(C1CCOCC1)c(=O)n2C [AZD7648] + CCN(CCO)CCCOc1ccc2c(Nc3cc(CC(=O)Nc4cccc(F)c4)[nH]n3)ncnc2c1 [AZD2811] (first compound max 10 µM, 7x7, partner max 1 µM) | 0.0618 | -0.0393 | -0.0403 | -0.0025 | -0.036 | -0.003 | 0.0351 | -0.0233 | 0.0509 | 0.0154 | -0.0162 | -0.0383 |
| Cc1cc2ncnn2cc1Nc1ncc2c(n1)n(C1CCOCC1)c(=O)n2C [AZD7648] + CN(C)CCCOc1ccc(-c2ccc3ncc4c(c3c2)n(C2CCOCC2)c(=O)n4C)cn1 [AZD0156] (first compound max 10 µM, 7x7, partner max 1 µM) | 0.0401 | -0.0104 | -0.0028 | -0.0041 | -0.0215 | 0.0031 | -0.0155 | -0.0108 | 0.0388 | 0.0029 | 0.0028 | -0.0151 |
| Cc1cc2ncnn2cc1Nc1ncc2c(n1)n(C1CCOCC1)c(=O)n2C [AZD7648] + C[C@@H]1COCCN1C2=NC(=NC(=C2)C3(CC3)[S@](=N)(=O)C)C4=C5C=CNC5=NC=C4 [AZD6738] (first compound max 10 µM, 7x7, partner max 10 µM) | 0.0987 | 0.0081 | 0.0024 | -0.0173 | -0.022 | -0.0328 | -0.0024 | -0.0473 | 0.0403 | 0.0136 | 0.0215 | 0.0199 |
| Cc1cc2ncnn2cc1Nc1ncc2c(n1)n(C1CCOCC1)c(=O)n2C [AZD7648] + O=C(c1cc(Cc2n[nH]c(=O)c3ccccc23)ccc1F)N1CCN(C(=O)C2CC2)CC1 [Olaparib] (first compound max 10 µM, 7x7, partner max 10 µM) | -0.0098 | -0.0323 | -0.0193 | 0.0223 | -0.011 | -0.0401 | -0.0312 | -0.0086 | -0.0143 | -0.02 | -0.0295 | -0.0443 |
| COc1cccc2c1C(=O)c1c(O)c3c(c(O)c1C2=O)C[C@@](O)(C(=O)CO)C[C@@H]3O[C@H]1C[C@H](N)[C@H](O)[C@H](C)O1 [Doxorubicin] + Cc1cc2ncnn2cc1Nc1ncc2c(n1)n(C1CCOCC1)c(=O)n2C [AZD7648] (first compound max 1 µM, 7x7, partner max 10 µM) | 0.107 | 0.0233 | 0.0851 | 0.0878 | 0.112 | 0.0202 | 0.0044 | 0.0698 | 0.115 | 0.0172 | 0.0633 | -0.0124 |
| COc1cccc(OCCCN)c1-c1cc(Nc2cnc(C#N)cn2)n[nH]1 [Prexasertib] + C=CCn1c(=O)c2cnc(Nc3ccc(N4CCN(C)CC4)cc3)nc2n1-c1cccc(C(C)(C)O)n1 [AZD1775] (first compound max 1 µM, partner max 1 µM) | 0.233 | 0.0679 | 0.0426 | 0.0651 | 0.0096 | 0.0271 | 0.0038 | 0.0016 | 0.0083 | 0.186 | 0.0434 | -0.0124 |
| COc1cccc(OCCCN)c1-c1cc(Nc2cnc(C#N)cn2)n[nH]1 [Prexasertib] + CN(C)CCCOc1ccc(-c2ccc3ncc4c(c3c2)n(C2CCOCC2)c(=O)n4C)cn1 [AZD0156] (first compound max 1 µM, 7x7, partner max 1 µM) | -0.0525 | 0.0099 | -0.0324 | 0.0229 | -0.0491 | -0.0453 | -0.0289 | -0.0411 | -0.0164 | 0.016 | -0.02 | -0.0459 |
| COc1cccc(OCCCN)c1-c1cc(Nc2cnc(C#N)cn2)n[nH]1 [Prexasertib] + C[C@@H]1COCCN1C2=NC(=NC(=C2)C3(CC3)[S@](=N)(=O)C)C4=C5C=CNC5=NC=C4 [AZD6738] (first compound max 1 µM, 7x7, partner max 10 µM) | -0.0106 | 0.0251 | -0.0111 | -0.0028 | -0.0333 | -0.026 | -0.0531 | -0.0542 | -0.0197 | 0.0117 | -0.029 | -0.0693 |
| COc1cccc(OCCCN)c1-c1cc(Nc2cnc(C#N)cn2)n[nH]1 [Prexasertib] + Cc1cc2ncnn2cc1Nc1ncc2c(n1)n(C1CCOCC1)c(=O)n2C [AZD7648] (first compound max 1 µM, 7x7, partner max 10 µM) | -0.0011 | -0.0122 | -0.0285 | 0.059 | -0.058 | -0.0318 | -0.0264 | -0.0363 | -0.0059 | 0.0044 | 0.0078 | -0.0123 |
| COc1cccc(OCCCN)c1-c1cc(Nc2cnc(C#N)cn2)n[nH]1 [Prexasertib] + O=C(c1cc(Cc2n[nH]c(=O)c3ccccc23)ccc1F)N1CCN(C(=O)C2CC2)CC1 [Olaparib] (first compound max 1 µM, 7x7, partner max 10 µM) | 0.0459 | -0.008 | -0.0635 | 0.0573 | -0.0516 | -0.18 | -0.0343 | -0.0981 | -0.0597 | -0.0135 | -0.0676 | -0.0407 |
| COc1cc2c(cc1OCCCCCOc1cc3c(cc1OC)C(=O)N1C=C(C)C[C@H]1C=N3)N=C[C@@H]1CC(C)=CN1C2=O [SG3199] + O=C(c1cc(Cc2n[nH]c(=O)c3ccccc23)ccc1F)N1CCN(C(=O)C2CC2)CC1 [Olaparib] (first compound max 0.001 µM, 7x7, partner max 10 µM) | -0.0289 | -0.0306 | -0.0451 | -0.0021 | -0.0311 | -0.0216 | 0.0015 | -0.0326 | -0.0175 | -0.0264 | -0.0375 | -0.0453 |
| CCc1c2c(nc3ccc(O)cc13)-c1cc3c(c(=O)n1C2)COC(=O)[C@]3(O)CC [SN-38] + CN(C)CCCOc1ccc(-c2ccc3ncc4c(c3c2)n(C2CCOCC2)c(=O)n4C)cn1 [AZD0156] (first compound max 0.3 µM, 7x7, partner max 1 µM) | 0.0291 | -0.0039 | -0.0016 | 0.0083 | -0.0216 | 0.0405 | -0.0585 | -0.0413 | 0.0527 | -0.0222 | 0.0274 | -0.0134 |
